In the supplement of paper PMC10307832:

Assays:
Assay in all cases: relative viability (nuclei count vs DMSO), 5 days (fraction); higher = more cells survive
Cabozantinib + Foretinib = compound: COc1cc2nccc(Oc3ccc(NC(=O)C4(C(=O)Nc5ccc(F)cc5)CC4)cc3)c2cc1OC [Cabozantinib] + COc1cc2c(Oc3ccc(NC(=O)C4(C(=O)Nc5ccc(F)cc5)CC4)cc3F)ccnc2cc1OCCCN1CCOCC1 [Foretinib] (partner 0.25 µM)
In short: (§1)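 One day after seeding in 1536-well plates, lung cancer cell lines were dosed by pin tool. Dosing was either single-drug or a fixed anchor-drug dose plus five library-drug doses (not always all listed) in √10 steps. After 5 days, nuclei were stained in one fix-and-stain step and counted on 4× images, and relative viability is the nuclei count of treated wells over that of vehicle wells, given as the median of duplicate plates.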

Kobe2602 + Decitabine = compound: C1=CC(=CC=C1NC(=S)NNC2=C(C=C(C=C2[N+](=O)[O-])C(F)(F)F)[N+](=O)[O-])F [Kobe2602] + Nc1ncn([C@H]2C[C@H](O)[C@@H](CO)O2)c(=O)n1 [Decitabine] (partner 2 µM)
In short: as §1

[1] = compound: COc1cc2nccc(Oc3ccc(NC(=O)C4(C(=O)Nc5ccc(F)cc5)CC4)cc3)c2cc1OC [Cabozantinib] + CC(C)C[C@H](NC(=O)[C@H](Cc1ccccc1)NC(=O)c1cnccn1)B(O)O [Bortezomib] (partner 0.002 µM)
In short: as §1

Cell Line	relative viability (Cabozantinib + Foretinib; first compound 0.02 µM)	relative viability (Cabozantinib + Foretinib; first compound 0.06325 µM)	relative viability (Cabozantinib + Foretinib; first compound 0.2 µM)	relative viability (Cabozantinib + Foretinib; first compound 0.6325 µM)	relative viability (Cabozantinib + Foretinib; first compound 2 µM)	relative viability (Kobe2602 + Decitabine; first compound 0.2 µM)	relative viability (Kobe2602 + Decitabine; first compound 0.6325 µM)	relative viability (Kobe2602 + Decitabine; first compound 2 µM)	relative viability (Kobe2602 + Decitabine; first compound 6.325 µM)	relative viability (Kobe2602 + Decitabine; first compound 20 µM)	relative viability ([1]; first compound 0.02 µM)	relative viability ([1]; first compound 0.06325 µM)	relative viability ([1]; first compound 0.2 µM)	relative viability ([1]; first compound 0.6325 µM)	relative viability ([1]; first compound 2 µM)
NCI-H596	0.89	1.09	0.9	0.906	0.777	1.03	1.03	1.07	1.12	1.23	0.966	1.07	1.02	0.802	0.996
NCI-H727	0.675	1.06	1.08	0.818	0.889	0.854	0.765	0.97		1.13	0.704	0.901	0.718	0.819	0.947
NCI-H1975	1.04	1.01	1.1	0.89	0.849	0.402	0.427	0.419	0.379	0.4	0.409	0.403	0.357	0.402	0.389
NCI-H1355	1.08	1.1	1.03	1.08	0.949	0.312	0.368	0.301	0.346	0.358	1.05	1.29	1.12	1.23	1.18
NCI-H1755	0.911	1.01	0.92	0.917	0.856	0.711	0.692	0.738	0.698	0.764	0.962	1	0.903	0.895	0.928
NCI-H2009	1.24	1.26	1.19	1.28	1.29	0.358	0.414	0.405	0.394	0.372	1.06	1.15	1.07	1.16	0.998
HCC-78		0.684	0.549	0.541	0.518	0.65	0.711	0.6	0.724	0.727	0.409	0.436	0.339	0.227	0.21
NCI-H322M	0.967	1.21	0.899	0.874	0.931	0.707	0.72	0.693	0.741	0.718	1.2	1.34		1.17	1.36
HOP-62	1.17	1.19	1.06	1	1.24	0.236	0.203	0.201	0.251	0.243	0.779	0.828	0.56	1.07	1.06
NCI-H838	1.13	1.08	1.04	1.02	1.01	0.474	0.478	0.46	0.472	0.527	0.746	0.95	0.941	0.685	1.04
BEN	0.595	0.79	0.708	0.787	0.387	0.707	0.734	0.709	0.711	0.92	0.679	1.08	0.902	0.639	0.795
NCI-H23		1.03	0.989	0.904	0.836	0.2	0.345	0.316	0.304	0.39		1.31	0.996	0.959	0.945
ChaGo-K-1	0.937	1.04	0.968	0.836	0.857	0.538	0.524	0.512	0.469	0.481	0.829	1.25	0.909	0.804	1.04
NCI-H2085	0.765	1.05	0.982	1.05	0.855	0.549	0.549	0.568	0.552	0.616	1.22	1.14	1.08	1.01	1.03
LC-2-ad		1.03	0.889	1.02	0.89	0.664	0.888	0.943	0.825	0.815	1.06	1.17	0.863	0.865	0.821
201T		1.21	1.05	1.05	1.14	0.89	0.892	0.872	0.949	0.876	1.14	1.15	1.05	1.08	1.12
NCI-H2023	0.917	1.2	1.05	0.956	0.896	0.232	0.218	0.207	0.199	0.196	0.893	0.957	0.819	0.889	1.03
NCI-H2347	0.842	0.916	1.28	1.11	1.05	0.648	0.618	0.594	0.569	0.661	0.875	1.34	0.944	0.963	0.666
LXF-289	0.974	1	0.934	1.02	0.993	0.387	0.432	0.386	0.381	0.378	1.09	1.03	1.01	0.956	1
EKVX	0.77	0.862	0.81	0.536	0.852	0.337	0.377	0.349	0.43	0.385	0.996	1.19	0.942	1.1	1
ABC-1	1.15	1.13	1.11	1	0.932	1.11	1.31	1.05	1.18	1.16	0.263	0.263	0.294	0.351	0.279
NCI-H650		1.03	1.06	0.999	0.984	0.313	0.304	0.32	0.289	0.376	0.691	0.998	0.861	0.737	0.627
NCI-H1734	0.916	0.864	0.878	0.858	0.769	0.49	0.539	0.497	0.48	0.481	1.04	1.06	0.987	0.891	0.951
LOU-NH91	0.89	0.997		0.966	0.992	0.794	0.895	0.801	0.809	0.826	0.484	0.55	0.457	0.508	0.551
NCI-H460	1.03	1.04	0.93	1	1.07		0.486	0.525	0.472	0.454	1.38	1.15	1.12	1.13	1.13
SK-LU-1	0.868	1.01	0.904	0.845	0.699	0.672	0.702	0.631	0.581	0.64	1.06	1.78	1.39	0.905	1.1
EPLC-272H	0.77	0.884	0.515	0.82	0.782	0.341	0.381	0.411	0.319	0.395	0.98	0.937	0.756	1.04	1.04
A-427	1.09	1.28	0.89	0.967	0.786	0.589	0.628	0.51	0.539	0.616	1.03	0.969	1.05	0.936	0.988
